Legend:
[1] = Oxidative stability: residual ratio of reduced coenzyme Q10 after preservation at 40° C. in the air in light shading for 30 days; assay type: physicochemical
Experimental: The reduced coenzyme Q10 residual ratio (%) after preservation at 40° C. in the air for 30 days under shading conditions of the particulate composition containing reduced coenzyme Q10 of the present invention is not particularly limited. It is not less than about 50 wt %, preferably not less than about 60 wt %, more preferably not less than about 70 wt %, still more preferably not less than about 80 wt %, particularly preferably not less than about 90 wt %.
The purity of reduced coenzyme Q10 and the weight ratio (%) of reduced coenzyme Q10 were determined by the following HPLC analysis (weight ratio (%)={reduced coenzyme Q10/(oxidized coenzyme Q10+reduced coenzyme Q10)}×100).

[2] = Crystallinity of reduced coenzyme Q10 in the particulate composition by DSC; assay type: physicochemical; details: after preservation at 25° C. in the air for 30 days; measured/theoretical melting calorie
Experimental: The crystallinity of reduced coenzyme Q10 in the obtained particulate composition was determined by the following DSC (differential scanning calorimeter [EXSTAR6000 manufactured by Seiko Instruments Inc.]) analysis after preservation at 25° C. in the air for 30 days. The particulate compositions obtained in Examples and Comparative Examples were preserved under the above-mentioned given conditions, 10 mg thereof was taken in an aluminum pan and the temperature was elevated from 15° C. to 70° C. at a temperature rise rate of 5° C./min, during which the crystal melting calorie was measured. The crystallinity was calculated according to the following formula using the theoretical melting calorie determined from the content of reduced coenzyme Q10 in the particulate composition and the data of melting calorie actually measured by DSC. Crystallinity (%)=(measured melting calorie/theoretical melting calorie)×100 (Volume Average Particle Size)

## COc1c(O)c(C)c(C/C=C(\C)CC/C=C(\C)CC/C=C(\C)CC/C=C(\C)CC/C=C(\C)CC/C=C(\C)CC/C=C(\C)CC/C=C(\C)CC/C=C(\C)CCC=C(C)C)c(O)c1OC [Comparative Example 1, reduced coenzyme Q10]
[1]
  residual ratio of the reduced coenzyme Q10: 28%
[2]
  crystallinity measured by DSC: 100%

Source: patent US9981899B2, “Composition containing reduced coenzyme Q10 and production method thereof” (KANEKA CORPORATION, priority 2006, dated 2018)
